Assay results from PMC9090415, “Discovery of small molecule inhibitors of Plasmodium falciparum apicoplast DNA polymerase” (Journal of Enzyme Inhibition and Medicinal Chemistry, 2022).

Biological target: P. falciparum apicoplast DNA polymerase (Pf-apPOL) (Plasmodium falciparum, UniProt Q8ILY1)
Test: Fluorescence-based high-throughput DNA polymerase assay (molecular beacon), primary screen and dose-response
Assay type: biochemical
Settings: for DNA Pol: 90 min, 10 µM; for IC50: supplemental file 2, sheet IC50 nontoxic compounds, Pf-apPOL
Summary of the method: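 Single-point screening used 10 µM compound with 20 nM polymerase, 20 nM hairpin substrate and 6 µM dNTPs for 90 min at 25 °C. Confirmatory titrations (2.5–80 µM) followed fluorescence at three times, and IC50 was derived from a fit including a cooperativity term n.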

Sequence of P. falciparum apicoplast DNA polymerase (Pf-apPOL) (Q8ILY1 entry or part of it): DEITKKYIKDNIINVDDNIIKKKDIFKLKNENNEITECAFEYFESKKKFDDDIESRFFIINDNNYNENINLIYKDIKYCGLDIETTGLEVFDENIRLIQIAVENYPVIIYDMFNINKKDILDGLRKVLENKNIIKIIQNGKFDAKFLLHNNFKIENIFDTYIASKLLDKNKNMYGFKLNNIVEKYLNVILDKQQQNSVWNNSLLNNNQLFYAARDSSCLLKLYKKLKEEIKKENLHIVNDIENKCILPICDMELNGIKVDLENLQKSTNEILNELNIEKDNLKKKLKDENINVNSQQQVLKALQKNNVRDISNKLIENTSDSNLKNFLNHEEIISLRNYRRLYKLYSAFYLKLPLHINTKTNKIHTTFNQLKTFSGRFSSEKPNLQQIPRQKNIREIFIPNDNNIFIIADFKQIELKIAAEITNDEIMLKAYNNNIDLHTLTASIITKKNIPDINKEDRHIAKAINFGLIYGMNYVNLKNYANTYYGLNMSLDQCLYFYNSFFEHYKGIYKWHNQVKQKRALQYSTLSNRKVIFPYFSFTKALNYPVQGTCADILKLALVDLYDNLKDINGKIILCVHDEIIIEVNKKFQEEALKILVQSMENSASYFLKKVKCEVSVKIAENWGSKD

## COc1ccc(NC(=O)Cn2ccc3c(=O)[nH]ccc32)cc1 [Molecule 13, COc1ccc(cc1)NC(=O)Cn1ccc2c1cc[nH]c2=O]
DRC-1, concentration 2.5
  % inhibition Apo pol 10': 9.9864%
  % inhibition Apol 90': 1.393%
  % inhibition apPOL 180': -3.687%
DRC-1, concentration 5
  % inhibition Apo pol 10': 32.1099%
  % inhibition Apol 90': 18.8368%
  % inhibition apPOL 180': 7.549%
DRC-1, concentration 10
  % inhibition Apo pol 10': 65.6259%
  % inhibition Apol 90': 50.5955%
  % inhibition apPOL 180': 35.4263%
DRC-1, concentration 20
  % inhibition Apo pol 10': 81.849%
  % inhibition Apol 90': 73.6159%
  % inhibition apPOL 180': 60.6819%
DRC-1, concentration 40
  % inhibition Apo pol 10': 89.1437%
  % inhibition Apol 90': 87.1809%
  % inhibition apPOL 180': 82.9961%
DRC-1, concentration 80
  % inhibition Apo pol 10': 82.2361%
  % inhibition Apol 90': 85.204%
  % inhibition apPOL 180': 83.4711%
DRC-2, concentration 2.5
  % inhibition Apo pol 5': 7%
  % inhibition Apol 40': 5.45%
  % inhibition ApPOL 90': 4%
  % inhibition apPOL 180': -2%
DRC-2, concentration 5
  % inhibition Apo pol 5': 18%
  % inhibition Apol 40': 19%
  % inhibition ApPOL 90': 16%
  % inhibition apPOL 180': 7%
DRC-2, concentration 10
  % inhibition Apo pol 5': 37%
  % inhibition Apol 40': 41%
  % inhibition ApPOL 90': 38%
  % inhibition apPOL 180': 27%
DRC-2, concentration 20
  % inhibition Apo pol 5': 47%
  % inhibition Apol 40': 65%
  % inhibition ApPOL 90': 66%
  % inhibition apPOL 180': 63%
DRC-2, concentration 40
  % inhibition Apo pol 5': 45%
  % inhibition Apol 40': 67%
  % inhibition ApPOL 90': 72%
  % inhibition apPOL 180': 74%
DRC-2, concentration 80
  % inhibition Apo pol 5': 40%
  % inhibition Apol 40': 65%
  % inhibition ApPOL 90': 70%
  % inhibition apPOL 180': 76%
conc. 2.5, DRC-2
  % inhibition Apo pol 5': 7%
conc. 5, DRC-2
  % inhibition apPOL 180': 7%
conc. 20, DRC-2
  % inhibition Apol 40': 65%
conc. 80, DRC-2
  % inhibition Apol 40': 65%
Primary screen value by plate and well
  DNA Pol: 53
Primary screen value of the 186 hits, unit not given
  DNA Pol: 53

## O=C(Nc1nnc(-c2ccno2)o1)c1ccc2ncsc2c1 [Molecule 62]
  IC50: 14.2 µM

## COC(=O)c1sc(-c2ccc(C(C)(C)C)cc2)cc1NC(=O)CCC(=O)O [Molecule 87]
  IC50: 8.86 µM

## N#CC(C#N)=C1SCN(c2cccc(Cl)c2)CS1 [Molecule 29]
  IC50: 11.9 µM
